Laboratory results reported in PubChem BioAssay AID290 (DTP/NCI, 2004).
Where “and” joins values, the source holds several entries; their conditions need not be identical. Equal entries are not always repeated. Results filed as inconclusive are left out.

Test system: mice, P1798 lymphosarcoma sc, survival or tumor weight T/C
Test: NCI In Vivo Anticancer Drug Screen. Data for tumor model P1798 Lymphosarcoma (subcutaneous) in unknown mice
Experimental: The antitumor activity of compounds was measured in mice bearing transplantable tumors. Survival or tumor size were measured and the results are expressed as the measurement made in the treated group (T) divided by the measurement made in the vehicle treated control group (C). The tumor model used in this assay is P1798 Lymphosarcoma (subcutaneous) in unknown mice

[1] = endpoint: mean tumor weight, dose: 62.5 mg/kg/injection, schedule: Q01DX010 (ip), vehicle: carboxymethylcellulose (CMC), higher = larger tumour
[2] = endpoint: mean tumor weight, dose: 250.0 mg/kg/injection, schedule: Q01DX010 (ip), vehicle: carboxymethylcellulose (CMC), higher = larger tumour

Which results are given for Clc1ncnc2nc[nH]c12?
T/C (endpoint: mean tumor weight, dose: 31.25 mg/kg/injection, schedule: Q01DX010 (ip), vehicle: carboxymethylcellulose (CMC), higher = larger tumour): 106 % of control; T/C [1]: 95 % of control; T/C (endpoint: mean tumor weight, dose: 125.0 mg/kg/injection, schedule: Q01DX010 (ip), vehicle: carboxymethylcellulose (CMC), higher = larger tumour): 92 % of control; T/C [2]: 79 % of control

How did the T/C (endpoint: mean tumor weight, dose: 3.1 mg/kg/injection, schedule: Q01DX010 (ip), vehicle: methylcellulose (MC), higher = larger tumour) turn out when CCN(CC)CCNc1ccc(C)c2sc3ccccc3c(=O)c12 was run?
Its T/C is 108 % of control.

And the T/C (endpoint: mean tumor weight, dose: 5.0 mg/kg/injection, schedule: Q01DX010 (ip), vehicle: methylcellulose (MC), higher = larger tumour)?
Its T/C is 99 % of control.

And the T/C (endpoint: mean tumor weight, dose: 10.0 mg/kg/injection, schedule: Q01DX010 (ip), vehicle: methylcellulose (MC), higher = larger tumour)?
The T/C was 68 % of control.

And the T/C (endpoint: mean tumor weight, dose: 20.0 mg/kg/injection, schedule: Q01DX010 (ip), vehicle: methylcellulose (MC), higher = larger tumour)?
The T/C was 104 % of control.

How did the T/C (endpoint: mean tumor weight, dose: 50.0 mg/kg/injection, schedule: Q01DX010 (ip), vehicle: carboxymethylcellulose (CMC), higher = larger tumour) turn out when CCCCn1cnc2c(=S)nc[nH]c21 was run?
Its T/C is 78 % of control.

And the T/C (endpoint: mean tumor weight, dose: 100.0 mg/kg/injection, schedule: Q01DX010 (ip), vehicle: carboxymethylcellulose (CMC), higher = larger tumour)?
The T/C was 43 % of control.

What does the source list for Nc1nc(=S)c2[nH]cnc2[nH]1?
T/C (endpoint: mean tumor weight, dose: 0.12 mg/kg/injection, schedule: Q01DX010 (ip), vehicle: carboxymethylcellulose (CMC), higher = larger tumour): 77 % of control; T/C (endpoint: mean tumor weight, dose: 0.25 mg/kg/injection, schedule: Q01DX010 (ip), vehicle: carboxymethylcellulose (CMC), higher = larger tumour): 64 % of control; T/C (endpoint: mean tumor weight, dose: 0.5 mg/kg/injection, schedule: Q01DX010 (ip), vehicle: carboxymethylcellulose (CMC), higher = larger tumour): 81 % of control

With S=c1nc[nH]c2nc[nH]c12 as the compound, how does the T/C (endpoint: mean tumor weight, dose: 3.12 mg/kg/injection, schedule: Q01DX010 (ip), vehicle: other, higher = larger tumour) read?
Its T/C is 103 % of control.

What about the T/C (endpoint: mean tumor weight, dose: 6.25 mg/kg/injection, schedule: Q01DX010 (ip), vehicle: other, higher = larger tumour) of the same compound?
Its T/C is 83 % of control.

And the T/C (endpoint: mean tumor weight, dose: 12.5 mg/kg/injection, schedule: Q01DX010 (ip), vehicle: other, higher = larger tumour)?
The T/C was 74 % of control and 77 % of control and 88 % of control.

And the T/C (endpoint: mean tumor weight, dose: 18.7 mg/kg/injection, schedule: Q01DX010 (ip), vehicle: other, higher = larger tumour)?
Its T/C is 45 % of control.

What about the T/C (endpoint: mean tumor weight, dose: 34.0 mg/kg/injection, schedule: Q01DX001 (ip), vehicle: carboxymethylcellulose (CMC), higher = larger tumour) of the same compound?
Its T/C is 92 % of control.

How did the T/C (endpoint: mean tumor weight, dose: 3.0 mg/kg/injection, schedule: Q01DX010 (ip), vehicle: saline, higher = larger tumour) turn out when N=C(N)c1ccc(Nc2ccc(C(=N)N)cc2)cc1 was run?
The T/C was 105 % of control.

And the T/C (endpoint: mean tumor weight, dose: 6.0 mg/kg/injection, schedule: Q01DX010 (ip), vehicle: saline, higher = larger tumour)?
The T/C was 117 % of control.

And the T/C (endpoint: mean tumor weight, dose: 6.25 mg/kg/injection, schedule: Q01DX010 (ip), vehicle: methylcellulose (MC), higher = larger tumour)?
The T/C was 66 % of control.

What about the T/C (endpoint: mean tumor weight, dose: 12.0 mg/kg/injection, schedule: Q01DX010 (ip), vehicle: saline, higher = larger tumour) of the same compound?
The T/C was 77 % of control.

What about the T/C (endpoint: mean tumor weight, dose: 12.5 mg/kg/injection, schedule: Q01DX010 (ip), vehicle: methylcellulose (MC), higher = larger tumour) of the same compound?
Its T/C is 77 % of control.

With CN(C)c1nc(N(C)C)nc(N(C)C)n1 as the compound, how does the T/C [1] read?
Its T/C is 119 % of control.

What about the T/C [2] of the same compound?
Its T/C is 88 % of control.

What about the T/C (endpoint: mean tumor weight, dose: 500.0 mg/kg/injection, schedule: Q01DX010 (ip), vehicle: carboxymethylcellulose (CMC), higher = larger tumour) of the same compound?
Its T/C is 106 % of control.

How did the T/C (endpoint: mean tumor weight, dose: 18.0 mg/kg/injection, schedule: Q01DX010 (ip), vehicle: carboxymethylcellulose (CMC), higher = larger tumour) turn out when CCNc1nncs1 was run?
Its T/C is 93 % of control.

And the T/C (endpoint: mean tumor weight, dose: 37.0 mg/kg/injection, schedule: Q01DX010 (ip), vehicle: carboxymethylcellulose (CMC), higher = larger tumour)?
Its T/C is 67 % of control.

Which T/C (endpoint: median survival time, dose: 0.25 mg/kg/injection, schedule: Q01DX010 (ip), vehicle: water, higher = longer survival) does the source give for COc1cccc2c1C(=O)c1c(O)c3c(c(O)c1C2=O)C[C@@](O)(C(=O)CO)C[C@@H]3OC1CC(N)C(O)C(C)O1 (some centres undefined) here?
The T/C was 84 % of control.

And the T/C (endpoint: median survival time, dose: 0.5 mg/kg/injection, schedule: Q01DX010 (ip), vehicle: water, higher = longer survival)?
Its T/C is 102 % of control.

What about the T/C (endpoint: median survival time, dose: 1.0 mg/kg/injection, schedule: Q01DX010 (ip), vehicle: water, higher = longer survival) of the same compound?
The T/C was 93 % of control.

And the T/C (endpoint: median survival time, dose: 1.0 mg/kg/injection, schedule: Q04DX007 (ip), vehicle: water, higher = longer survival)?
The T/C was 108 % of control.

And the T/C (endpoint: median survival time, dose: 2.0 mg/kg/injection, schedule: Q01DX010 (ip), vehicle: water, higher = longer survival)?
The T/C was 36 % of control.

What about the T/C (endpoint: median survival time, dose: 2.0 mg/kg/injection, schedule: Q04DX007 (ip), vehicle: water, higher = longer survival) of the same compound?
Its T/C is 107 % of control.

And the T/C (endpoint: median survival time, dose: 4.0 mg/kg/injection, schedule: Q01DX010 (ip), vehicle: water, higher = longer survival)?
The T/C was 28 % of control.

How did the T/C (endpoint: mean tumor weight, dose: 30.0 mg/kg/injection, schedule: Q01DX010 (ip), vehicle: steriod suspending solution, higher = larger tumour) turn out when CCC1=C(c2cc(Cl)c3ccccc3c2OCC(=O)O)OC(CC)(C(=O)c2cc(Cl)c3ccccc3c2OCC(=O)O)CC1 (centres undefined) was run?
The T/C was 94 % of control.

What about the T/C (endpoint: mean tumor weight, dose: 60.0 mg/kg/injection, schedule: Q01DX010 (ip), vehicle: steriod suspending solution, higher = larger tumour) of the same compound?
Its T/C is 112 % of control.

And the T/C (endpoint: mean tumor weight, dose: 120.0 mg/kg/injection, schedule: Q01DX010 (ip), vehicle: steriod suspending solution, higher = larger tumour)?
Its T/C is 65 % of control.

And the T/C (endpoint: mean tumor weight, dose: 240.0 mg/kg/injection, schedule: Q01DX010 (ip), vehicle: steriod suspending solution, higher = larger tumour)?
Its T/C is 85 % of control.

Which T/C (endpoint: mean tumor weight, dose: 100.0 mg/kg/injection, schedule: Q01DX011 (sc), vehicle: steriod suspending solution, higher = larger tumour) does the source give for CC(C)=C(Br)CC[C@@H](C)[C@H]1CC[C@@]2(C)C3=C(CC[C@]12C)[C@@]1(C)CC[C@H](O)C(C)(C)[C@@H]1CC3 here?
Its T/C is 151 % of control.

And the T/C (endpoint: mean tumor weight, dose: 200.0 mg/kg/injection, schedule: Q01DX011 (sc), vehicle: steriod suspending solution, higher = larger tumour)?
Its T/C is 186 % of control.

OCC1OC(n2cnc3c(=S)nc[nH]c32)C(O)C1O (centres undefined) was tested. Which T/C (endpoint: mean tumor weight, dose: 4.0 mg/kg/injection, schedule: Q01DX010 (ip), vehicle: carboxymethylcellulose (CMC), higher = larger tumour) did it give?
Its T/C is 115 % of control.

And the T/C (endpoint: mean tumor weight, dose: 8.0 mg/kg/injection, schedule: Q01DX010 (ip), vehicle: carboxymethylcellulose (CMC), higher = larger tumour)?
The T/C was 67 % of control.

And the T/C (endpoint: mean tumor weight, dose: 16.0 mg/kg/injection, schedule: Q01DX010 (ip), vehicle: carboxymethylcellulose (CMC), higher = larger tumour)?
Its T/C is 45 % of control.

What about the T/C (endpoint: mean tumor weight, dose: 31.0 mg/kg/injection, schedule: Q01DX010 (ip), vehicle: carboxymethylcellulose (CMC), higher = larger tumour) of the same compound?
The T/C was 82 % of control.

Which T/C (endpoint: mean tumor weight, dose: 1.6 mg/kg/injection, schedule: Q01DX010 (ip), vehicle: water, higher = larger tumour) does the source give for C[C@@H]1C[C@@H]([C@H](O)CC2CC(=O)NC(=O)C2)C(=O)[C@@H](C)C1 here?
Its T/C is 86 % of control.

What about the T/C (endpoint: mean tumor weight, dose: 3.1 mg/kg/injection, schedule: Q01DX010 (ip), vehicle: water, higher = larger tumour) of the same compound?
Its T/C is 96 % of control.

What about the T/C (endpoint: mean tumor weight, dose: 6.3 mg/kg/injection, schedule: Q01DX010 (ip), vehicle: water, higher = larger tumour) of the same compound?
The T/C was 96 % of control.

And the T/C (endpoint: mean tumor weight, dose: 12.5 mg/kg/injection, schedule: Q01DX010 (ip), vehicle: water, higher = larger tumour)?
Its T/C is 98 % of control.

Cn1c(N)nc2nc[nH]c2c1=S was tested. Which T/C (endpoint: mean tumor weight, dose: 3.1 mg/kg/injection, schedule: Q01DX010 (ip), vehicle: carboxymethylcellulose (CMC), higher = larger tumour) did it give?
Its T/C is 105 % of control.

And the T/C (endpoint: mean tumor weight, dose: 6.3 mg/kg/injection, schedule: Q01DX010 (ip), vehicle: carboxymethylcellulose (CMC), higher = larger tumour)?
Its T/C is 59 % of control.

And the T/C (endpoint: mean tumor weight, dose: 10.0 mg/kg/injection, schedule: Q01DX010 (ip), vehicle: saline, higher = larger tumour)?
The T/C was 102 % of control.

And the T/C (endpoint: mean tumor weight, dose: 12.5 mg/kg/injection, schedule: Q01DX010 (ip), vehicle: carboxymethylcellulose (CMC), higher = larger tumour)?
Its T/C is 91 % of control.

And the T/C (endpoint: mean tumor weight, dose: 20.0 mg/kg/injection, schedule: Q01DX010 (ip), vehicle: saline, higher = larger tumour)?
Its T/C is 99 % of control.

And the T/C (endpoint: mean tumor weight, dose: 25.0 mg/kg/injection, schedule: Q01DX010 (ip), vehicle: carboxymethylcellulose (CMC), higher = larger tumour)?
Its T/C is 101 % of control.

What about the T/C (endpoint: mean tumor weight, dose: 40.0 mg/kg/injection, schedule: Q01DX010 (ip), vehicle: saline, higher = larger tumour) of the same compound?
Its T/C is 122 % of control.

And the T/C (endpoint: mean tumor weight, dose: 80.0 mg/kg/injection, schedule: Q01DX010 (ip), vehicle: saline, higher = larger tumour)?
Its T/C is 114 % of control.

How did the T/C (endpoint: mean tumor weight, dose: 250.0 mg/kg/injection, schedule: Q01DX010 (ip), vehicle: saline, higher = larger tumour) turn out when CN(C)CC(=O)c1ccc(O)c(O)c1 was run?
The T/C was 154 % of control.

What does the source list for CCCNc1ncnc2[nH]ncc12?
T/C (endpoint: mean tumor weight, dose: 5.0 mg/kg/injection, schedule: Q01DX010 (ip), vehicle: water, higher = larger tumour): 71 % of control; T/C (endpoint: mean tumor weight, dose: 10.0 mg/kg/injection, schedule: Q01DX010 (ip), vehicle: water, higher = larger tumour): 54 % of control

For CC(=O)O[C@]1(C(C)=O)CC[C@H]2[C@@H]3C[C@H](C)C4=CC(=O)C=C[C@]4(C)[C@@]3(F)[C@@H](O)C[C@@]21C, which T/C (endpoint: mean tumor weight, dose: 5.0 mg/kg/injection, schedule: Q01DX010 (sc), vehicle: steriod suspending solution, higher = larger tumour) is on record?
Its T/C is 87 % of control.

What about the T/C (endpoint: mean tumor weight, dose: 10.0 mg/kg/injection, schedule: Q01DX010 (sc), vehicle: steriod suspending solution, higher = larger tumour) of the same compound?
The T/C was 106 % of control.

And the T/C (endpoint: mean tumor weight, dose: 20.0 mg/kg/injection, schedule: Q01DX010 (sc), vehicle: steriod suspending solution, higher = larger tumour)?
Its T/C is 74 % of control.

What about the T/C (endpoint: mean tumor weight, dose: 40.0 mg/kg/injection, schedule: Q01DX010 (sc), vehicle: steriod suspending solution, higher = larger tumour) of the same compound?
Its T/C is 47 % of control.
